From patent publication US10392348B2, “2-oxo-3,4-dihydroquinoline compounds as plant growth regulators” (Syngenta Participations AG, priority 2015, dated 2019)
Where two headings read alike, the source gives them in different places.

Columns and labels:
[1] = system: soybean plants (variety S20-G7); experiment: Reduced plant water use in soybean (foliar spray, repeated weighing of pots); type: in vivo; conditions: Glycine max, foliar, Table B1, sprayed at 500 μM, vs negative control
Method in brief: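 Daytime water use was tracked by weighing pots of 12-day-old soybean after foliar spray of compound formulated as EC plus EXTRAVON 1 g/20 L. Cumulative total (0-2.5 DAA) sums a.m. and p.m. readings; values baseline-adjusted by covariance analysis against formulation-only negative control.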

[2] = system: corn plants (variety NK OCTET); experiment: Reduced plant water use in corn (foliar spray, repeated weighing of pots); type: in vivo; conditions: Zea mays, corn plants sprayed at 500 μM, average of 6 pots
Method in brief: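 Water use was summed over 0–2.5 days after application, from repeated day-time weighings of pots and corrected by ANCOVA for pre-application baseline. Plants, 12 days old, received foliar EC sprays diluted with water plus 0.4% rape seed methyl ester adjuvant.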

Compound `CCCN1C(=O)CCc2cc(CNS(=O)(=O)c3ccc4ccccc4c3)ccc21` [Compound 3.075, N-[(2-oxo-1-propyl-3,4-dihydroquinolin-6-yl)methyl]naphthalene-2-sulfonamide] has a change in vivo at 500 µM ([1]; 0 h, 0 DAA a.m. (10:30-12:50), read-out: % WU 0 DAA AM) of -10.8%, a change in vivo at 500 µM ([1]; 24 h, 1 DAA a.m. (7:30-12:50), read-out: % WU 1DAA AM) of -2.1% and a change in vivo at 500 µM ([1]; 24 h, 1 DAA p.m. (14:00-19:50), read-out: % WU 1DAA PM) of -0.6%. The change in vivo at 500 µM ([1]; 48 h, 2 DAA a.m. (07:30-12:50), read-out: % WU 2 DAA AM) was -2.1%, the change in vivo at 500 µM ([1]; 48 h, 2 DAA p.m. (14:00-19:50), read-out: % WU 2 DAA PM) was -2% and the change in vivo at 500 µM ([1]; 60 h, cumulative total WU (0-2.5 DAA), read-out: % WU Total 0 to 2.5 DAA) was -3.3%. It also gave a change in vivo at 500 µM ([2]; 0 h, water use during day time vs negative control, 0 DAA a.m. (10:30-12:50), read-out: % WU 0 DAA AM) of -9.8%, a change in vivo at 500 µM ([2]; 0 h, water use during day time vs negative control, 0 DAA p.m. (14:00-19:50), read-out: % WU 0DAA PM) of -7.9% and a change in vivo at 500 µM ([2]; 24 h, water use during day time vs negative control, 1 DAA a.m. (07:30-12:50), read-out: % WU 1DAA AM) of -8.2%. It also gave a change in vivo at 500 µM ([2]; 24 h, water use during day time vs negative control, 1 DAA p.m. (14:00-19:50), read-out: % WU 1DAA PM) of -6.4%, a change in vivo at 500 µM ([2]; 48 h, water use during day time vs negative control, 2 DAA a.m. (07:30-12:50), read-out: % WU 2 DAA AM) of -4.9% and a change in vivo at 500 µM ([2]; 48 h, water use during day time vs negative control, 2 DAA p.m. (14:00-19:50), read-out: % WU 2 DAA PM) of -3.3%. The change in vivo at 500 µM ([2]; 60 h, cumulative total water use 0-2.5 DAA (sum of the time points) vs negative control, read-out: % WU Total 0 to 2.5 DAA) was -6.3% and the melting point was 169 to 173 °C.
